pEC50, pIC50, pKd, pKi: −log10 of the molar value. Where a SMILES comes first, the peptide text is derived from it. The star is where a group is joined. Cbz = O=C(OCc1ccccc1)*; CH2Cl = ClC*; CH2F = FC*
What was measured:
whole blood samples [1] = assay: ribosomal 18S DNA duplex real time PCR: increase of DNA in plasma of stored whole blood; assay type: cell-based, human; conditions: for increase of genomic DNA in the plasma (18S DNA duplex assay) / x-fold increase of ribosomal 18S DNA in plasma: within 7 days of storage at RT; for x-fold increase of ribosomal 18S DNA in plasma: 20 μM in 10 ml blood
Method: (§1) A test system was designed, wherein cell-containing biological samples, here whole blood samples, were incubated at room temperature (RT) for up to 6 or 7 days. Therein, the sample stabilizing properties of the additives of the present invention were tested on day 0, day 3 and day 6/7 the samples.
(§2) The circulating, extracellular nucleic acids were purified from the obtained plasma samples using the QIAamp® Circulating NA Kit (according to the handbook). In brief: • 10 ml sample input; • lysis: 1 ml Proteinase K and 8 ml Buffer ACL (QIAGEN) • binding: 18 ml Buffer ACB (QIAGEN) • wash-steps: unchanged and according to handbook • elution in 60 μl Buffer AVE (QIAGEN) 4. Analysis of the Eluates
4.2. DNA quantification with a real time PCR assay, sensitive for DNA degradation (target: 500 and 66 bp long ribosomal 18S DNA coding sequences).
(samples were diluted 1:10 before amplification)
Detection of ribosomal 18S DNA by quantitative real-time PCR, makes it possible to calculate the x-fold increase of DNA from day 0 to day 3 or 7 (calculation: division of day 3 (or 7) copies by day 0 copies).
The division of short amplicon copy number by long amplicon copy number (66 by/500 bp) indicates whether the amount of detected short or long amplicons changes over time in a similar way. A decrease of this ratio implies a stronger release of longer rather than of shorter DNA molecules and can be interpreted as release of high molecular weight genomic DNA from blood cells.
On day 0, day 3 and day 6, replicates were processed as follows. […] The collected plasma was centrifuged at 16,000×g for 10 minutes at 4° C. The cleared plasma fraction was collected and the extracellular nucleic acids were isolated using the QIAamp Circulating nucleic acid kit (1 ml input material, 60 μl elution volume). […] Values that are close to 1 imply preserved levels of ccfDNA. The higher the value, the less stabilization is achieved.

[2] = biological target: Bax (Bcl-2-associated X protein) (Homo sapiens, UniProt Q07812); conditions: cited from earlier work
Bax (Bcl-2-associated X protein), sequence (Q07812 whole entry): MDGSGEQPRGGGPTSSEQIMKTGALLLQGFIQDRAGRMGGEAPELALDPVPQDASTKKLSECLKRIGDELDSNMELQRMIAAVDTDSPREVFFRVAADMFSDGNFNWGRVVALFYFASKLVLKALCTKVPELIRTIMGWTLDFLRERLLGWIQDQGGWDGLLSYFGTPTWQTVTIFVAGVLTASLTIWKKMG

caspase-8 = caspase-8 (Homo sapiens, UniProt Q14790); conditions: cited from earlier work
caspase-8, sequence (Q14790 217-479, species assumed): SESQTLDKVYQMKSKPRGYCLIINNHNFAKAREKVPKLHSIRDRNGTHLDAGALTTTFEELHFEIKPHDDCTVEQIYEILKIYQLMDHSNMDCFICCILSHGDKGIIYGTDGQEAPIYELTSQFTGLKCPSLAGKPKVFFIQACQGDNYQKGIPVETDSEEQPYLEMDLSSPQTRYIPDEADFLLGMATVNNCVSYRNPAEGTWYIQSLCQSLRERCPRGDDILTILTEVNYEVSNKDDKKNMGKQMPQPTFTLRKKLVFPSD

[3] = test system: etoposide-induced cortical neuron death; conditions: cited from earlier work; for pEC50: read-out: ED50 (the source's name)
[4] = administered in rats in vivo; cited from earlier work
MCF7 breast cancer cells = conditions: at 20 μM; cited from earlier work
whole blood samples [5] = assay: DNA size distribution by chip gel electrophoresis of DNA isolated from plasma of stored whole blood; assay type: cell-based; conditions: for genomic DNA release/fragmentation: day 7, RT; for ladder-like pattern of DNA bands (release/fragmentation of genomic DNA): 20 μM end concentration in 10 ml blood, stored at RT, day 3 and day 7, vs DMSO control and K2E blood
Method: as §1, with “samples. The samples were processed according to the following protocols, where applicable (for details, see also the specific examples in the results section):” for “samples.”
To separate the blood plasma from the whole blood, the blood samples were centrifuged for 15 min at 5000 rpm, and the obtained plasma samples were again centrifuged for 10 min at 16.000×g at 4° C.
as §2
4.1. Measurement of the blood cell stability/DNA release by the determination of DNA size distribution using a chip gel electrophoresis (2100 Bioanalyzer; Agilent Technologies; Inc., USA) according to manufacturer's instruction (see handbook Agilent DNA 7500 and DNA 12000 Kit Guide), but 1.5 μl instead of 1 μl sample were transferred to the wells.
The eluted circulating cell-free DNA was separated by size using chip gel electrophoresis (for details on the method see above, I, 4.1). […] The DMSO control and the K2E blood (not treated according to the teachings of the present invention) show the same ladder-like pattern of bands. This pattern occurs in samples where apoptosis takes place. During apoptosis, endonucleases degrade genomic DNA at inter-nucleosomal linker regions and produce DNA fragments of circa 180 bp or multiples of 180 bp. Thus, apoptosis occurs in samples which show a clear ladder-like pattern. Furthermore, the strength (darkness) of the pattern is decisive. The darker the bands, the more genomic DNA was released from the cells and thus contaminates the extracellular nucleic acid population.

mitochondrial division = conditions: cited from earlier work
anthrax lethal factor = anthrax lethal factor (Bacillus anthracis, UniProt P15917); conditions: cited from earlier work
anthrax lethal factor, sequence (P15917 34-809 limits assumed): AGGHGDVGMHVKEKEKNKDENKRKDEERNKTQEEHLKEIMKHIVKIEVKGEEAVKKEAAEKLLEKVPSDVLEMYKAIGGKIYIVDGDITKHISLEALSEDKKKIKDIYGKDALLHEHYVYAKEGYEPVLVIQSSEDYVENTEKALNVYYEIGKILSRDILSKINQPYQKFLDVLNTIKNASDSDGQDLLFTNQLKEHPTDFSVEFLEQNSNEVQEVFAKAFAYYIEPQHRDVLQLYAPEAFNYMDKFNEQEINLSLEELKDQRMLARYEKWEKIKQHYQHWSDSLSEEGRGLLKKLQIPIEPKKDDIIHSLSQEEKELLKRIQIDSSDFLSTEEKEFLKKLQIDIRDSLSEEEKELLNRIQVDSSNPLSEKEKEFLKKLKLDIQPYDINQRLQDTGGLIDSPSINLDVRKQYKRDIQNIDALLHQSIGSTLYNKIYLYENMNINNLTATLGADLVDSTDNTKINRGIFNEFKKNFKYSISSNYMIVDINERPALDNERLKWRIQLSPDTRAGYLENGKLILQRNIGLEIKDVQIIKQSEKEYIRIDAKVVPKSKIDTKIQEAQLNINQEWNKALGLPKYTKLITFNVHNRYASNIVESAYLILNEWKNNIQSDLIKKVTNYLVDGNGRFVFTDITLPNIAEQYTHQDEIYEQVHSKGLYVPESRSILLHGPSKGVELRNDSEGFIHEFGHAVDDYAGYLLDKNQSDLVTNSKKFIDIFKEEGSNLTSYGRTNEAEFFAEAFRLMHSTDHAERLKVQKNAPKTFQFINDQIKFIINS

fragmentin 2 = biological target: T1, fragmentin 2 (Rattus norvegicus, UniProt P18291); conditions: read-out: ID50 (the source's name); cited from earlier work
T1 sequence (P18291 21-248): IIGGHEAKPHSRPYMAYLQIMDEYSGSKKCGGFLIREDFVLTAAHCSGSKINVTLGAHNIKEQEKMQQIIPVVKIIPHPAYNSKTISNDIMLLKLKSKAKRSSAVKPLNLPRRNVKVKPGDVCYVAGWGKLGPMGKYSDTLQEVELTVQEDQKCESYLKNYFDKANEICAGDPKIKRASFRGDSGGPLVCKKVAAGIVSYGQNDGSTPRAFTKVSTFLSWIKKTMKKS

[6] = biological target: T2, human recombinant caspase-1 (Homo sapiens, UniProt P29466); conditions: cited from earlier work
T2 sequence (P29466 120-404): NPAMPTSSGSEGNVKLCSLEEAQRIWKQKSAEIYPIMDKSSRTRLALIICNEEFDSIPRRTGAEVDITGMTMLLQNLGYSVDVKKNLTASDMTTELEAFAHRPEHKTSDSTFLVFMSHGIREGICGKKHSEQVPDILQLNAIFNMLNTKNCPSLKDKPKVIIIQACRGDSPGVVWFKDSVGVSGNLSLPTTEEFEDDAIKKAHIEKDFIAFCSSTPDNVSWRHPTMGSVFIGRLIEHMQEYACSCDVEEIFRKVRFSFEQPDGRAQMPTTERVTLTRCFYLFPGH

[7] = neuron culture medium at 37° C.; cited from earlier work
Bax-mediated apoptosis = conditions: cited from earlier work

Compound: O[C@H]1[C@H](O)[C@@H](O)[C@H](O)[C@@H](O)[C@H]1O [inositol, Cyclohexane-1,2,3,4,5,6-geksol]
- relative change of ccfDNA level (day X copies/day 0 copies) (whole blood samples [1]; concentrations of for example 0.05 M, room temperature up to six days): suitable alternatives

Compound: Humanin, Human, Synthetic: A 24-residue anti-apoptotic peptide
- pKd [2]: ~8.70

Compound: OC[C@@H](O)[C@@H](O[C@H]1O[C@H](CO)[C@@H](O)[C@H](O)[C@H]1O)[C@H](O)[C@@H](O)CO [maltitol, 4-O-α-D-Glucopyranosyl-D-glucitol]
- relative change of ccfDNA level (day X copies/day 0 copies) (whole blood samples [1]; concentrations ≤0.01M, room temperature up to six days): suitable alternatives

Compound: Ac-IETD-aldehyde
- pKi (caspase-8): 9.00

Compound: N=c1sc2c(n1CC(=O)c1ccc([N+](=O)[O-])cc1)CCCC2 [Pifithrin-α, p-Nitro]
- pEC50 [3]: 6.52
- potency relative to Pifithrin-α [4]: 100-fold more potent than Pifithrin-α when adminstered in rats in

Compound: O=C(C=Cc1ccc(C=CC(=O)Nc2ccc(C3=NCCN3)cc2)cc1)Nc1ccc(C2=NCCN2)cc1 [GW 4869]
- protection against cell death (MCF7 breast cancer cells): specific PLC. Reported to offer complete protection against TNF-α

Compound: CC(C)C(NC(=O)c1ccc2ccccc2n1)C(=O)NC(CC(=O)O)C(=O)COc1c(F)cccc1F (stereo not drawn) [Q-VD-OPh, Quinoline-Val-Asp-CH2-OPH]
- increase of genomic DNA in the plasma (18S DNA duplex assay) (whole blood samples [1]; 1 μM in combination with 21 mM glucose): only a minor increase of genomic DNA
- increase of genomic DNA in the plasma (18S DNA duplex assay) (whole blood samples [1]; 4 μM in combination with 21 mM glucose): ≤ 4 fold
- x-fold increase of ribosomal 18S DNA in plasma (whole blood samples [1]): reduced increase of DNA
- genomic DNA release/fragmentation (whole blood samples [5]; 1 μM caspase inhibitor with 21.4 mM glucose): significantly reduced the genomic DNA release/fragmentation
- genomic DNA release/fragmentation (whole blood samples [5]; 4 μM caspase inhibitor with 21.4 mM glucose, compared with 1 μM): improved
- ladder-like pattern of DNA bands (release/fragmentation of genomic DNA) (whole blood samples [5]): significantly reduced ladder-like patterns

Compound: OCC(O)C(O)C(O)C(O)CO (stereo not drawn) [mannitol, Hexane-1,2,3,4,5,6-hexol]
- relative change of ccfDNA level (day X copies/day 0 copies) (whole blood samples [1]; 0.1, 0.05, 0.01 M tested, room temperature): stabilization effects over 3 days

Compound: COc1cc(-n2c(=S)[nH]c3ccccc3c2=O)c(Cl)cc1Cl [Mdivi-1, 3-(2,4-Dichloro-5-methoxyphenyl)-2,3-dihydro-2-thioxo-4(1H)-quinazolinone]
- pIC50 (mitochondrial division): ~5.00

Compound: FC(F)(F)c1cccc(-c2csc(C3COc4ccccc4O3)n2)c1 (stereo not drawn) [Caspase Inhibitor X]
- effect on activity (anthrax lethal factor): assisted cleavage of BID, a proapoptotic protein. Weakly affects

Compound: Cbz-Ala-Ala-Asp-CH2Cl [Granzyme B Inhibitor I]
- pIC50 (fragmentin 2): 6.52

Compound: Ac-Tyr-Val-Ala-Asp-CHO [Caspase-1 Inhibitor I]
- pKi [6]: 9.70

Compound: O=[N+]([O-])c1ccc(-c2cn3c4c(sc3n2)CCCC4)cc1 [Pifithrin-α, p-Nitro, Cyclic]
- potency relative to Pifithrin-α [3]: A cell-permeable p53 inhibitor that exhibits 10-fold higher potency
- pEC50 [3]: 7.52
- half-life longer than Pifithrin-α [7]: 50%

Compound: COC(=O)C[C@H](NC(=O)[C@H](C)NC(=O)[C@@H](NC(=O)OCc1ccccc1)C(C)C)C(=O)CF [Z-Val-Ala-Asp(OMe)-FMK] (Cbz-Val-Ala-Asp(OMe)-CH2F)
- x-fold increase of ribosomal 18S DNA in plasma (whole blood samples [1]): more prominent on day 7
- ladder-like pattern of DNA bands (release/fragmentation of genomic DNA) (whole blood samples [5]): reduced ladder-like pattern

Compound: H-Val-Pro-Met-Leu-Lys-OH (H-VPMLK-OH) [Bax-Inhibiting Peptide, V5]
- effective concentration for Bax-mediated apoptosis (Bax-mediated apoptosis): mediated apoptosis (~50-200 μM). Also effectively blocks caspase-
